Measurements as given in ChEMBL document CHEMBL1201862, “PubChem BioAssay data set” (2004).
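The compound was tested at five concentrations on cells cultured in 96-well plates, with a 48-hour exposure period. GI50: concentration for 50% inhibition of growth.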 Active and inactive are the calls of the source. Cut-off read from the data, not from the text of the source: active = GI50 up to about 1.1 µM and inactive = higher.

Columns and labels:
Experiment in all cases: inhibition of tumour cell growth, NCI panel, 48 h
[1] = system: ACHN
[2] = system: COLO 205
[3] = system: DMS-273
[4] = system: HOP-92
[5] = system: Hs-578T
[6] = system: IGROV-1
[7] = system: M14
[8] = system: MDA-MB-231
[9] = system: MOLT-4
[10] = system: NCI-H23
[11] = system: NCI-H460
[12] = system: NCI/ADR-RES
[13] = system: OVCAR-4
[14] = system: SF-295
[15] = system: SF-539
[16] = system: SN12C
[17] = system: SR
[18] = system: SW-620
[19] = system: TK-10
[20] = system: U-251

Measured: GI50

C=C(CCCCCCCCC)CC(=O)SCCNC(=O)CCNC(=O)C(O)C(C)(C)COP(=O)(O)OP(=O)(O)OCC1OC(n2cnc3c(N)ncnc32)C(O)C1OP(=O)(O)O (stereo not given)
inactive: [1] > 100 µM | [2] > 100 µM | [3] 21 µM | [4] 75.5 µM | [5] > 64.4 µM | [6] 98.2 µM | [7] 25.5 µM | [8] > 77.8 µM | [9] > 57.1 µM | [10] > 100 µM | [11] 35.4 µM | [12] > 100 µM | [13] 60.4 µM | [14] 57.4 µM | [15] 51.3 µM | [16] > 84.3 µM | [17] 36.4 µM | [18] > 100 µM | [19] > 100 µM | [20] 49.9 µM
